Source: patent US8680159B2, “Bradykinin 1 receptor modulating compounds” (Gruenenthal GmbH, priority 2010, dated 2014)

biological target: T1, B1R receptor of the rat (CHO K1 cells stably transfected with the B1R gene of the rat) (Rattus norvegicus, UniProt P97583); experiment: Functional study on the bradykinin receptor 1 (B1R), Ca2+ fluorescence (Fluo-4) FLIPR/Novostar assay, rB1R cells; format: cell-based; details: CHO-K1, 10 μM, library compounds CC_H, read-out: % Inhibition (r-B1R) at 10 μM
T1 construct: expressed in transfected cells; host or cells: CHO K1 cells (Chinese hamster ovary), stably transfected
T1 sequence (P97583 1-337): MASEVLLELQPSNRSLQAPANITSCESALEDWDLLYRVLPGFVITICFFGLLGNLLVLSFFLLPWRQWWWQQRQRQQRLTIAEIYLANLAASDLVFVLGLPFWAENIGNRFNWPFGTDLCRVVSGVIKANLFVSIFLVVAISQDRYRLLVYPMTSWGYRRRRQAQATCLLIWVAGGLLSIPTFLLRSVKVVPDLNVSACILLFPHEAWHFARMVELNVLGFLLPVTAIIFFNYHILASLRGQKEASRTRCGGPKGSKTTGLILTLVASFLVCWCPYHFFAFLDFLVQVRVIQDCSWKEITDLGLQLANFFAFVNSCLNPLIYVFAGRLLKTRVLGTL
Method in brief: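 Test compounds (10 μM) were added first and the Ca2+ rise was scored as % activation against Lys-Des-Arg9-bradykinin (≥50 nM, human) or Des-Arg9-bradykinin (≥1 μM, rat). After 6-20 min, the matching agonist was given at its EC80, and % inhibition relative to maximal achievable inhibition was calculated.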

Row | SMILES | inhibition at 10 µM
1 | Cc1ncc2n1C(=O)N(C1CCC(N(C)C(=O)c3ccc4c(c3)C(NC(=O)c3ccccc3Cl)CC4)CC1)C2 (centres unmarked) [CC_H-618, 3-[(2-Chloro-benzoyl)amino]-N-methyl-N-[4-(5-methyl-3-oxo-1,2-dihydro-imidazo[5,1-e]imidazol-2-yl)-cyclohexyl]-2,3-dihydro-1H-indene-5-carboxylic acid amide] | 84%
2 | CN(C(=O)c1ccc2c(c1)C(NC(=O)CCC1CCCC1)CC2)C1CCN(c2ccnc(N3CCCC3)n2)CC1 (centres unmarked) [CC_H-620, 3-(3-Cyclopentyl-propanoylamino)-N-methyl-N-[1-(2-pyrrolidin-1-yl-pyrimidin-4-yl)-piperidin-4-yl]-2,3-dihydro-1H-indene-5-carboxylic acid amide] | 102%
3 | CN(C(=O)c1ccc2c(c1)C(NC(=O)c1cccnc1C(F)(F)F)CC2)C1CCN(c2ncncc2F)CC1 (centres unmarked) [CC_H-621, N-[6-[[1-(5-Fluoro-pyrimidin-4-yl)-piperidin-4-yl]-methyl-carbamoyl]-2,3-dihydro-1H-inden-1-yl]-2-(trifluoromethyl)-pyridine-3-carboxylic acid amide] | 98%
4 | Cc1cc(N2CCC(N(C)C(=O)c3ccc4c(c3)C(NC(=O)CCC3CCCC3)CC4)CC2)nc(N(C)C)n1 (centres unmarked) [CC_H-622, 3-(3-Cyclopentyl-propanoylamino)-N-[1-(2-dimethylamino-6-methyl-pyrimidin-4-yl)-piperidin-4-yl]-N-methyl-2,3-dihydro-1H-indene-5-carboxylic acid amide] | 100%
5 | CN(C)c1nccc(N2CCC(N(C)C(=O)c3ccc4c(c3)C(NC(=O)c3ccccc3Cl)CC4)CC2)n1 (centres unmarked) [CC_H-623, 3-[(2-Chloro-benzoyl)amino]-N-[1-(2-dimethylamino-pyrimidin-4-yl)-piperidin-4-yl]-N-methyl-2,3-dihydro-1H-indene-5-carboxylic acid amide] | 101%
6 | CN(C(=O)c1ccc2c(c1)C(NC(=O)CCC1CCCC1)CC2)C1CCN(c2ccnc(C(C)(C)C)n2)CC1 (centres unmarked) [CC_H-624, N-[1-(2-tert-Butyl-pyrimidin-4-yl)-piperidin-4-yl]-3-(3-cyclopentyl-propanoylamino)-N-methyl-2,3-dihydro-1H-indene-5-carboxylic acid amide] | 96%
7 | CN(C(=O)c1ccc2c(c1)C(NC(=O)c1ccccc1Cl)CC2)C1CCN(c2ccnc(C3CC3)n2)CC1 (centres unmarked) [CC_H-627, 3-[(2-Chloro-benzoyl)amino]-N-[1-(2-cyclopropyl-pyrimidin-4-yl)-piperidin-4-yl]-N-methyl-2,3-dihydro-1H-indene-5-carboxylic acid amide] | 100%
8 | CN(C(=O)c1ccc2c(c1)C(NC(=O)c1cccnc1C(F)(F)F)CC2)C1CCN(c2ccnnc2)CC1 (centres unmarked) [CC_H-628, N-[6-[Methyl-(1-pyridazin-4-yl-piperidin-4-yl)-carbamoyl]-2,3-dihydro-1H-inden-1-yl]-2-(trifluoromethyl)-pyridine-3-carboxylic acid amide] | 99%
9 | CN(C)c1nccc(N2CCC(N(C)C(=O)c3ccc4c(c3)C(NC(=O)CCC3CCCC3)CC4)CC2)n1 (centres unmarked) [CC_H-629, 3-(3-Cyclopentyl-propanoylamino)-N-[1-(2-dimethylamino-pyrimidin-4-yl)-piperidin-4-yl]-N-methyl-2,3-dihydro-1H-indene-5-carboxylic acid amide] | 101%
10 | CN(C(=O)c1ccc2c(c1)C(NC(=O)CCC1CCCC1)CC2)C1CCN(c2ccnc(C3CC3)n2)CC1 (centres unmarked) [CC_H-630, 3-(3-Cyclopentyl-propanoylamino)-N-[1-(2-cyclopropyl-pyrimidin-4-yl)-piperidin-4-yl]-N-methyl-2,3-dihydro-1H-indene-5-carboxylic acid amide] | 95%
11 | CN(C(=O)c1ccc2c(c1)C(NC(=O)c1ccccc1Cl)CC2)C1CCN(c2ncncc2F)CC1 (centres unmarked) [CC_H-631, 3-[(2-Chloro-benzoyl)amino]-N-[1-(5-fluoro-pyrimidin-4-yl)-piperidin-4-yl]-N-methyl-2,3-dihydro-1H-indene-5-carboxylic acid amide] | 94%
12 | CN(C(=O)c1ccc2c(c1)C(NC(=O)CCC1CCCC1)CC2)C1CCN(c2ncncc2F)CC1 (centres unmarked) [CC_H-632, 3-(3-Cyclopentyl-propanoylamino)-N-[1-(5-fluoro-pyrimidin-4-yl)-piperidin-4-yl]-N-methyl-2,3-dihydro-1H-indene-5-carboxylic acid amide] | 95%
13 | CN(C(=O)c1ccc2c(c1)C(NC(=O)c1ccccc1Cl)CC2)C1CCN(c2ccnnc2)CC1 (centres unmarked) [CC_H-633, 3-[(2-Chloro-benzoyl)amino]-N-methyl-N-(1-pyridazin-4-yl-piperidin-4-yl)-2,3-dihydro-1H-indene-5-carboxylic acid amide] | 103%
14 | CN(C(=O)c1ccc2c(c1)C(NC(=O)CCC1CCCC1)CC2)C1CCN(c2ccnnc2)CC1 (centres unmarked) [CC_H-634, 3-(3-Cyclopentyl-propanoylamino)-N-methyl-N-(1-pyridazin-4-yl-piperidin-4-yl)-2,3-dihydro-1H-indene-5-carboxylic acid amide] | 93%
